Source: US4965261A, “Substituted benzoxazinorifamycin derivative and antibacterial agent containing the same” (Kanegafuchi Kagaku Kogyo Kabushiki Kaisha, priority 1988, dated 1990)
≈ marks a conversion by molar mass, not a printed value.

Tests used:
[1] = system: Bacillus subtilis IFO 3134; test: Antibacterial activity, standard method of Japan Society of Chemotherapy (Table 2); type: cell-based; details: IFO3134, read-out: Minimal inhibitory concentration
From the text: (§1) Derivative No. in Table 2 corresponds to derivative No. in Table 1.

[2] = system: Escherichia coli IFO 12734; test: as above; type: cell-based; details: IFO12734, read-out: Minimal inhibitory concentration
From the text: as §1

[3] = system: Klebsiella pneumoniae IFO 3512; test: as above; type: cell-based; details: IFO3512, read-out: Minimal inhibitory concentration
From the text: as §1

[4] = system: Micrococcus luteus IFO 12708; test: as above; type: cell-based; details: IFO12708, read-out: Minimal inhibitory concentration
From the text: as §1

[5] = system: Mycobacterium smegmatis ATCC 607; test: as above; type: cell-based; details: Mycolicibacterium smegmatis, ATCC607, read-out: Minimal inhibitory concentration
From the text: as §1

[6] = system: Staphylococcus aureus IFO 12732; test: as above; type: cell-based; details: IFO12732, read-out: Minimal inhibitory concentration
From the text: as §1

[7] = system: Mycobacterium tuberculosis H37 Rv; test: Antibacterial activity against a tubercle bacillus, two-fold dilution in Kirchner liquid medium; details: Kirchner medium with 10% bovine serum, 37° C., 4 weeks
[8] = Plasma concentration after oral administration to mice, bioassay with Micrococcus luteus IFO 12708; type: in vivo, ddY male mice; details: mouse, 20 mg/kg
Method: The derivatives No. 4 and No. 11 shown in Table 1 were orally administered to ddY male mice (7 weeks), respectively, in a dose of 20 mg/kg. The concentration of the test compound in the plasma was measured by a bioassay method employing Micrococcus luteus IFO 12708 as an assay bacterium according to a usual manner. The results are as follows: As for the derivative No. 4, the concentrations in the plasma after 1 hour, 3 hours, 5 hours and 8 hours from the administration were 17.0 μg/ml, 13.3 μg/ml, 14.5 μg/ml, 4.2 μg/ml, respectively. As for the derivative No. 11, the concentrations in the plasma after 1 hour, 3 hours, 5 hours and 8 hours from the administration were 17.3 μg/ml, 16.2 μg/ml, 13.8 μg/ml and 10.1 μg/ml, respectively.

[9] = system: Mycobacterium tuberculosis H37 Rv; test: Repeated treatment test of mice infected with tuberculosis, survival on fortieth day (groups of 10 mice); details: oral, 200 μg/mouse

Structure (SMILES)	MIC [1]	MIC [2]	MIC [3]	MIC [4]	MIC [5]	MIC [6]	Minimal inhibitory concentration ([7]; Table 3)	Minimal inhibitory concentration ([7]; Table 4)	concentration at 1 h ([8]; 1 hour)	concentration at 3 h ([8]; 3 hours)	concentration at 5 h ([8]; 5 hours)	concentration at 8 h ([8]; 8 hours)	Survival rate [9]	dead mice [9]
COc1c(N2CCCC2)ccc2nc3c4c5c6c(C)c(O)c4c(=O)c(c-3oc12)NC(=O)C(C)=CC=CC(C)C(O)C(C)C(O)C(C)C(OC(C)=O)C(C)C(OC)C=COC(C)(O6)C5=O (stereo not drawn) [Derivative No. 1]	0.16 µg/mL (≈ 0.181 µM)	> 10 µg/mL	> 10 µg/mL	0.04 µg/mL (≈ 0.0452 µM)	2.5 µg/mL (≈ 2.83 µM)	≤ 0.02 µg/mL	0.017 µg/mL (≈ 0.0192 µM)							
COc1c(N2CCN(C)CC2)ccc2nc3c4c5c6c(C)c(O)c4c(=O)c(c-3oc12)NC(=O)C(C)=CC=CC(C)C(O)C(C)C(O)C(C)C(OC(C)=O)C(C)C(OC)C=COC(C)(O6)C5=O (stereo not drawn) [Derivative No. 2]	≤ 0.02 µg/mL	2.5 µg/mL (≈ 2.74 µM)	2.5 µg/mL (≈ 2.74 µM)	≤ 0.02 µg/mL	1.25 µg/mL (≈ 1.37 µM)	≤ 0.02 µg/mL	0.15 µg/mL (≈ 0.164 µM)							
COc1c(N2CCN(CC(C)C)CC2)ccc2nc3c4c5c6c(C)c(O)c4c(=O)c(c-3oc12)NC(=O)C(C)=CC=CC(C)C(O)C(C)C(O)C(C)C(OC(C)=O)C(C)C(OC)C=COC(C)(O6)C5=O (stereo not drawn) [Derivative No. 3]	0.04 µg/mL (≈ 0.0419 µM)	> 10 µg/mL	> 10 µg/mL	0.08 µg/mL (≈ 0.0838 µM)	1.25 µg/mL (≈ 1.31 µM)	≤ 0.02 µg/mL	0.017 µg/mL (≈ 0.0178 µM)							
CCOc1c(N2CCN(C)CC2)ccc2nc3c4c5c6c(C)c(O)c4c(=O)c(c-3oc12)NC(=O)C(C)=CC=CC(C)C(O)C(C)C(O)C(C)C(OC(C)=O)C(C)C(OC)C=COC(C)(O6)C5=O (stereo not drawn) [Derivative No. 5]	≤ 0.02 µg/mL	2.5 µg/mL (≈ 2.7 µM)	2.5 µg/mL (≈ 2.7 µM)	≤ 0.02 µg/mL	1.25 µg/mL (≈ 1.35 µM)	≤ 0.02 µg/mL	0.035 µg/mL (≈ 0.0378 µM)							
CCOc1c(N2CCN(CC)CC2)ccc2nc3c4c5c6c(C)c(O)c4c(=O)c(c-3oc12)NC(=O)C(C)=CC=CC(C)C(O)C(C)C(O)C(C)C(OC(C)=O)C(C)C(OC)C=COC(C)(O6)C5=O (stereo not drawn) [Derivative No. 6]	≤ 0.02 µg/mL	5 µg/mL (≈ 5.31 µM)	2.5 µg/mL (≈ 2.66 µM)	≤ 0.02 µg/mL	0.63 µg/mL (≈ 0.669 µM)	≤ 0.02 µg/mL		0.008 µg/mL (≈ 0.0085 µM)						
CCOc1c(N2CCN(C(C)C)CC2)ccc2nc3c4c5c6c(C)c(O)c4c(=O)c(c-3oc12)NC(=O)C(C)=CC=CC(C)C(O)C(C)C(O)C(C)C(OC(C)=O)C(C)C(OC)C=COC(C)(O6)C5=O (stereo not drawn) [Derivative No. 7]	≤ 0.02 µg/mL	5 µg/mL (≈ 5.23 µM)	5 µg/mL (≈ 5.23 µM)	≤ 0.02 µg/mL	1.25 µg/mL (≈ 1.31 µM)	≤ 0.02 µg/mL	0.017 µg/mL (≈ 0.0178 µM)							
CCCOc1c(N2CCCC2)ccc2nc3c4c5c6c(C)c(O)c4c(=O)c(c-3oc12)NC(=O)C(C)=CC=CC(C)C(O)C(C)C(O)C(C)C(OC(C)=O)C(C)C(OC)C=COC(C)(O6)C5=O (stereo not drawn) [Derivative No. 9]	0.08 µg/mL (≈ 0.0877 µM)	> 10 µg/mL	> 10 µg/mL	0.08 µg/mL (≈ 0.0877 µM)	1.25 µg/mL (≈ 1.37 µM)	0.04 µg/mL (≈ 0.0439 µM)	0.035 µg/mL (≈ 0.0384 µM)							
CCCOc1c(N2CCN(CC(C)C)CC2)ccc2nc3c4c5c6c(C)c(O)c4c(=O)c(c-3oc12)NC(=O)C(C)=CC=CC(C)C(O)C(C)C(O)C(C)C(OC(C)=O)C(C)C(OC)C=COC(C)(O6)C5=O (stereo not drawn) [Derivative No. 10]	0.16 µg/mL (≈ 0.163 µM)	> 10 µg/mL	> 10 µg/mL	0.16 µg/mL (≈ 0.163 µM)	1.25 µg/mL (≈ 1.27 µM)	0.04 µg/mL (≈ 0.0407 µM)	0.07 µg/mL (≈ 0.0712 µM)							
COC1C=COC2(C)Oc3c(C)c(O)c4c(=O)c(c5oc6c(OC(C)C)c(N7CCCC7)ccc6nc-5c4c3C2=O)NC(=O)C(C)=CC=CC(C)C(O)C(C)C(O)C(C)C(OC(C)=O)C1C (stereo not drawn) [Derivative No. 11]	0.08 µg/mL (≈ 0.0877 µM)	> 10 µg/mL	> 10 µg/mL	0.04 µg/mL (≈ 0.0439 µM)	1.25 µg/mL (≈ 1.37 µM)	≤ 0.02 µg/mL	0.017 µg/mL (≈ 0.0186 µM)		17300 ng/mL	16200 ng/mL	13800 ng/mL	10100 ng/mL		
CCN1CCN(c2ccc3nc4c5c6c7c(C)c(O)c5c(=O)c(c-4oc3c2OC(C)C)NC(=O)C(C)=CC=CC(C)C(O)C(C)C(O)C(C)C(OC(C)=O)C(C)C(OC)C=COC(C)(O7)C6=O)CC1 (stereo not drawn) [Derivative No. 12]	≤ 0.02 µg/mL	5 µg/mL (≈ 5.23 µM)	5 µg/mL (≈ 5.23 µM)	≤ 0.02 µg/mL	1.25 µg/mL (≈ 1.31 µM)	≤ 0.02 µg/mL	0.017 µg/mL (≈ 0.0178 µM)							
COC1C=COC2(C)Oc3c(C)c(O)c4c(=O)c(c5oc6c(OC(C)C)c(N7CCN(CC(C)C)CC7)ccc6nc-5c4c3C2=O)NC(=O)C(C)=CC=CC(C)C(O)C(C)C(O)C(C)C(OC(C)=O)C1C (stereo not drawn) [Derivative No. 13]	0.16 µg/mL (≈ 0.163 µM)	> 10 µg/mL	> 10 µg/mL	0.16 µg/mL (≈ 0.163 µM)	1.25 µg/mL (≈ 1.27 µM)	0.04 µg/mL (≈ 0.0407 µM)	0.07 µg/mL (≈ 0.0712 µM)						100%	there was not observed any dead mouse
COC1C=COC2(C)Oc3c(C)c(O)c4c(=O)c(c5oc6c(OCC(C)C)c(N7CCN(CC(C)C)CC7)ccc6nc-5c4c3C2=O)NC(=O)C(C)=CC=CC(C)C(O)C(C)C(O)C(C)C(OC(C)=O)C1C (stereo not drawn) [Derivative No. 14]	0.08 µg/mL (≈ 0.0802 µM)	> 10 µg/mL	> 10 µg/mL	0.31 µg/mL (≈ 0.311 µM)	0.63 µg/mL (≈ 0.632 µM)	0.08 µg/mL (≈ 0.0802 µM)								
COc1c(N2CCCC2)cc(C)c2nc3c4c5c6c(C)c(O)c4c(=O)c(c-3oc12)NC(=O)C(C)=CC=CC(C)C(O)C(C)C(O)C(C)C(OC(C)=O)C(C)C(OC)C=COC(C)(O6)C5=O (stereo not drawn) [Derivative No. 15]	0.08 µg/mL (≈ 0.0891 µM)	> 10 µg/mL	> 10 µg/mL	0.04 µg/mL (≈ 0.0445 µM)	1.25 µg/mL (≈ 1.39 µM)	0.04 µg/mL (≈ 0.0445 µM)	0.008 µg/mL (≈ 0.00891 µM)							
COc1c(N2CCN(C)CC2)cc(C)c2nc3c4c5c6c(C)c(O)c4c(=O)c(c-3oc12)NC(=O)C(C)=CC=CC(C)C(O)C(C)C(O)C(C)C(OC(C)=O)C(C)C(OC)C=COC(C)(O6)C5=O (stereo not drawn) [Derivative No. 16]	≤ 0.02 µg/mL	5 µg/mL (≈ 5.39 µM)	5 µg/mL (≈ 5.39 µM)	≤ 0.02 µg/mL	1.25 µg/mL (≈ 1.35 µM)	≤ 0.02 µg/mL								
COc1c(N2CCN(CC(C)C)CC2)cc(C)c2nc3c4c5c6c(C)c(O)c4c(=O)c(c-3oc12)NC(=O)C(C)=CC=CC(C)C(O)C(C)C(O)C(C)C(OC(C)=O)C(C)C(OC)C=COC(C)(O6)C5=O (stereo not drawn) [Derivative No. 17]	0.04 µg/mL (≈ 0.0413 µM)	> 10 µg/mL	> 10 µg/mL	0.08 µg/mL (≈ 0.0825 µM)	1.25 µg/mL (≈ 1.29 µM)	≤ 0.02 µg/mL	0.07 µg/mL (≈ 0.0722 µM)						100%	there was not observed any dead mouse
CO[C@H]1/C=C/O[C@@]2(C)Oc3c(C)c(O)c4c(O)c(c(/C=N/N5CCN(C)CC5)c(O)c4c3C2=O)NC(=O)/C(C)=C\C=C\[C@H](C)[C@H](O)[C@@H](C)[C@@H](O)[C@@H](C)[C@H](OC(C)=O)[C@@H]1C [Rifampicin, reference compound]	0.08 µg/mL (≈ 0.0972 µM)	> 10 µg/mL	5 µg/mL (≈ 6.08 µM)	≤ 0.02 µg/mL	10 µg/mL (≈ 12.2 µM)	≤ 0.02 µg/mL	0.6 µg/mL (≈ 0.729 µM)	0.3 µg/mL (≈ 0.365 µM)					80%	
